These results are taken from patent US8425917B2 (priority 2001, dated 2013).

Common to all, as to type: cell-based, mouse (C57BL/6)
The subject of experiment [1] is EtxB-mediated epitope delivery in JAWSII cells.
For experiment [2] the test system is unchanged. This is another data set of the same source.
A further experiment has as its system JAWSII cells.
For experiment [3], the system named is MHC-I/SIINFEKL complex on JAWSII cells.
Another experiment deals with JAWSII dendritic cells.

Entries after “also recorded” stand apart in the source; their conditions may differ. Where two headings read alike, the source gives them in different places. Square brackets hold non-standard residues; d marks the D form. Peptide text beside a SMILES is read from it. * marks the point of attachment. Sta = CC(C)C[C@H](N)[C@@H](O)CC(=O)O; Isovaleryl = CC(C)CC(=O)*; Cbz = O=C(OCc1ccccc1)*

On to Bafilomycin A1 [BafA1], for which, in experiment [1], the “effect on EtxB-mediated epitope presentation (conjugate not specified)” value (shortened to “effect … (conjugate not specified)”) is reported as “inhibited”; the “effect on direct loading and presentation of free 8mer peptide” value (shortened to “effect … of free 8mer peptide”) was “did not inhibit”; the “effect on epitope delivery by EtxB-9mer, -16mer, -19mer, -26mer and -26mer* conjugates” value (shortened to “effect on epitope delivery by EtxB-9mer”) was “complete inhibition”; the “effect on epitope presentation by EtxB-31mer” value (shortened to “effect … by EtxB-31mer”) is listed as “prevented”. For the same compound, in experiment [2], the “effect on epitope delivery by EtxB-9mer” value is recorded as “complete inhibition”; the “effect … by EtxB-31mer” value is “prevented”. The “effect on MHC-I/SIINFEKL complexes in cells treated with EtxB-19mer or EtxB-31mer” value in the experiment with JAWSII cells is recorded as “no detectable MHC-I/SIINFEKL complexes were observed”.
For the compound `CC(C)C[C@@H](C=O)NC(=O)[C@H](CC(C)C)NC(=O)[C@H](CC(C)C)NC(=O)OCc1ccccc1` [MG132] (Cbz-Leu-Leu-Leu-aldehyde), in experiment [1], the “effect … of free 8mer peptide” value is given as “failed to prevent”; the “effect on epitope presentation by EtxB-19mer” value (“effect … by EtxB-19mer” for short) was “failed to prevent”; the “effect … by EtxB-31mer” value is given as “completely blocked”.
As to `c1cnc2c(c1)ccc1cccnc12` [1,10-phenanthroline], in experiment [1], the “effect … (conjugate not specified)” value was “found to inhibit”.
Same read-out and setting: to `CC(=O)N[C@@H](CC(C)C)C(=O)N[C@@H](CC(C)C)C(=O)N[C@H](C=O)CCCNC(=N)N` [leupeptin] belongs “no significant effects”.
Consider `CC(C)CC(=O)N[C@H](C(=O)N[C@H](C(=O)N[C@@H](CC(C)C)[C@@H](O)CC(=O)N[C@@H](C)C(=O)N[C@@H](CC(C)C)[C@@H](O)CC(=O)O)C(C)C)C(C)C` [pepstatin] (Isovaleryl-VV[Sta]A[Sta]-OH), for which the “effect on extent of EtxB-mediated presentation of the 26mer peptide” value in experiment [1] is given as “no effect”.
Take Brefeldin A [BFA]: in experiment [1], the “effect … of free 8mer peptide” value is reported as “did not inhibit”; the “effect on epitope delivery by EtxB-9mer” value is reported as “complete inhibition”; the “effect … by EtxB-31mer” value was “prevented”. Further, in experiment [2], the “effect on epitope delivery by EtxB-9mer” value is “complete inhibition”; the “effect … by EtxB-31mer” value is “prevented”. The “effect on MHC-I/SIINFEKL complexes in cells treated with EtxB-19mer or EtxB-31mer” value with JAWSII cells is “no detectable MHC-I/SIINFEKL complexes were observed”.
Regarding SIINFEKL [8mer], the “MHC-I/SIINFEKL complexes (shift in fluorescence)” value in experiment [3] was “clear and similar shift in fluorescence”. In the experiment with JAWSII dendritic cells, the “extent of class I epitope presentation (IL-2 release)” value (“extent … (IL-2 release)” below) is listed as “significantly stimulated class I presentation” and the “kinetics of class I peptide presentation (in words)” value is “peptide presentation at the earliest time point tested”.
For the compound `CC(=O)N[C@@H](CSC(=O)[C@]1([C@@H](O)C(C)C)NC(=O)[C@H](C)[C@@H]1O)C(=O)O` [lactacystin], in experiment [1], the “effect … of free 8mer peptide” value is “failed to prevent”; the “effect … by EtxB-19mer” value is “failed to prevent”; the “effect … by EtxB-31mer” value is listed as “completely blocked”.
Take `CC[C@@]1([C@@H]2O[C@@H]([C@H]3O[C@@](O)(CO)[C@H](C)C[C@@H]3C)C[C@@H]2C)CC[C@H]([C@]2(C)CC[C@]3(C[C@H](O)[C@@H](C)[C@@H]([C@@H](C)[C@@H](OC)[C@H](C)C(=O)O)O3)O2)O1` [monensin]: in experiment [1], the “effect … (conjugate not specified)” value is reported as “prevented; also recorded: inhibited”; the “effect … of free 8mer peptide” value is “unaffected”.
For the compound `CC[C@H](C)[C@H](NC(=O)[C@H]([C@@H](C)CC)N(C)C(C)=O)C(=O)N[C@H](C(=O)N[C@@H](CC(C)C)C(=O)[C@@]1(C)CO1)[C@@H](C)O` [epoxomicin], in experiment [1], the “effect … of free 8mer peptide” value is listed as “no inhibition of epitope presentation was observed”; the “effect … by EtxB-19mer” value is “no inhibition of epitope presentation was observed”; the “effect … by EtxB-31mer” value is “completely blocked”. In addition, in experiment [2], the “effect … by EtxB-19mer” value is “no inhibition of epitope presentation was observed” and the “effect … by EtxB-31mer” value was “completely blocked”. In the experiment on JAWSII cells, the “effect on MHC-I/SIINFEKL staining in cells treated with EtxB-19mer” value is “normal co-localisation of WGA and MHC-I/SIINFEKL complexes was observed”; the “effect on MHC-I/SIINFEKL staining in cells treated with EtxB-31mer” value is given as “no staining with MHC-I/SIINFEKL-specific antibodies was obtained”.
Take `CC(C)C[C@H](NC(=O)[C@@H](O)[C@H](N)Cc1ccccc1)C(=O)O` [bestatin]: the “effect … (conjugate not specified)” value in experiment [1] was “no significant effects”.
With CSIINFEKL [9mer], the “extent … (IL-2 release)” value in the experiment with JAWSII dendritic cells is on record as “significantly stimulated class I presentation”.
With CAVGAGATAEESIINFEKL [19mer], in the experiment on JAWSII dendritic cells, the “extent … (IL-2 release)” value is listed as “virtually no presentation occurred”.
